The values below come from patent US20190015467A1, “AGENT FOR PREVENTING OR AMELIORATING UNEVEN SKIN TONE” (KAO CORPORATION, priority 2017, published 2019).

Assay [1] concerns skin at the elbow site of AA. Put plainly: Organ culture of AA elbow skin with Torin 1: Fontana-Masson melanin staining and image analysis. Format: cell-based, human. Conditions: Torin 1 1 μM, tissue culture 5 days, vs absence of Torin 1; n=4, paired t-test p<0.05. On the procedure: Meanwhile, the sections were subjected to melanin staining (Melanin Stain), separately. The sections were immersed in a 4% PFA/PBS solution for 10 minutes to be fixed. The fixed sections were washed with distilled water (DDW) for 5 minutes 3 times in total, and thereafter a Fontana-ammonia silver solution (Muto) was added dropwise thereto, followed by treatment at room temperature for 30 minutes. Then, the sections were washed with DDW for 5 minutes 3 times in total, and a Kernechtrot solution (Muto) was added dropwise thereto, followed by treatment for 3 minutes, for nuclear staining. The excess staining solution was washed away with DDW, followed by dehydration, clearing, and mounting with Malinol (Muto).
From skin at the elbow site of four AA women, skin tissues were collected through punch biopsy by a dermatologist. The collected tissues were halved with a scalpel, and the tissues were cultured for 5 days in the presence or absence of mTORC1 inhibitor, Torin 1 (Cayman Chemical, #10997) to a final concentration of 1 μM. […] Further, melanin was visualized by Fontana-Masson staining, and the epidermal stratum corneum thickness and the melanin deposition area were calculated using an image analysis software (Image J).

Assay [2] concerns cultured keratinocytes derived from human neonatal foreskin. Put plainly: Gene expression by quantitative PCR in Torin 1-treated cultured keratinocytes. Format: cell-based. Conditions: 24 hours culture, ANOVA, Dunnett test p<0.05. How it is done:
Torin 1 was added to cultured keratinocytes derived from human neonatal foreskin, and the mixture was cultured for 24 hours in an environment of 37° C. and 5% CO2. For the cell culture, a culture medium obtained by adding a predetermined growth additive (Humedia KG2, manufactured by KURABO INDUSTRIES LTD.) to Epilife culture medium (Life Technologies) was used. RNA was extracted from the keratinocytes, and the gene expression was analyzed by quantitative PCR using a Taqman probe (Life Technologies).

The test system of assay [3] is mTORC1. Put plainly: Organ culture of AA elbow skin with Torin 1: immunohistochemical analysis of mTOR phosphorylation. Conditions: Torin 1 1 μM, tissue culture 5 days; paired t-test p<0.05. Format: cell-based, human. How it is done: The technique of immunohistochemical analyses will be described. The sections were immersed in acetone or a 4% PFA/PBS solution for 10 minutes to be fixed. The fixed sections were washed with PBS-T (0.05% Tween-20/PBS) for 5 minutes 3 times in total and were blocked with a 1% BSA/PBS solution for 30 minutes. Subsequently, after the sections were subjected to overnight treatment at 4° C. with a primary antibody and were washed with PBS for 5 minutes 3 times in total, a secondary antibody (Jackson ImmunoResearch, 1:100 or 1:200) fluorescent labeled with FITC, RR-X, or Cy3 was added dropwise thereto, followed by treatment at 37° C. for 30 minutes. […]
The produced preparations were subjected to tissue observation and photographing using an inverted microscope (AxioVision, manufactured by Carl Zeiss Vision International GmbH) or a confocal laser microscope (LSM710, manufactured by Carl Zeiss Vision International GmbH). The captured images were analyzed using an image analysis software, and the expression levels of Pmel17, which is a marker of melanocyte growth and activation, cell proliferation marker Ki67, Filaggrin (FLG), Loricrin (LOR), and Transglutaminase 1 (TGM1), which are keratinization-related factors, were quantitated. Further, using RGB Profile Plot, which is an image analysis software, the fluorescence intensity distribution in the skin depth direction was investigated. […]

Assay [4] relates to skin at the elbow site of AA. Put plainly: Organ culture of AA elbow skin with Torin 1: immunohistochemical analyses of autophagy-related, keratinization and proliferation markers. The class given is cell-based, human. Conditions: Torin 1 1 μM, tissue culture 5 days. On the procedure: The technique of immunohistochemical analyses will be described. The sections were immersed in acetone or a 4% PFA/PBS solution for 10 minutes to be fixed. The fixed sections were washed with PBS-T (0.05% Tween-20/PBS) for 5 minutes 3 times in total and were blocked with a 1% BSA/PBS solution for 30 minutes. Subsequently, after the sections were subjected to overnight treatment at 4° C. with a primary antibody and were washed with PBS for 5 minutes 3 times in total, a secondary antibody (Jackson ImmunoResearch, 1:100 or 1:200) fluorescent labeled with FITC, RR-X, or Cy3 was added dropwise thereto, followed by treatment at 37° C. for 30 minutes. Thereafter, the sections were washed with PBS-T for 5 minutes 3 times in total and with PBS for 5 minutes once, mounted by aqueous encapsulant containing a nuclear-staining agent (H-1200: Vector Laboratories). Refer to Table 1 for the type of primary antibody, the tissue fixation conditions, and the concentration used.
The produced preparations were subjected to tissue observation and photographing using an inverted microscope (AxioVision, manufactured by Carl Zeiss Vision International GmbH) or a confocal laser microscope (LSM710, manufactured by Carl Zeiss Vision International GmbH). The captured images were analyzed using an image analysis software, and the expression levels of Pmel17, which is a marker of melanocyte growth and activation, cell proliferation marker Ki67, Filaggrin (FLG), Loricrin (LOR), and Transglutaminase 1 (TGM1), which are keratinization-related factors, were quantitated. Further, using RGB Profile Plot, which is an image analysis software, the fluorescence intensity distribution in the skin depth direction was investigated. The image analysis software used was “Image J” (available from imagej.nih.gov/ij/).
From skin at the elbow site of four AA women, skin tissues were collected through punch biopsy by a dermatologist. The collected tissues were halved with a scalpel, and the tissues were cultured for 5 days in the presence or absence of mTORC1 inhibitor, Torin 1 (Cayman Chemical, #10997) to a final concentration of 1 μM. In the tissue culture, a culture medium obtained by adding 10 v/v % Fetal Bovine Serum (FBS) and antibiotics (Antibiotic-Antimycotic) to Advanced-DMEM was used (both were from Life Technologies). After the completion of culture, frozen samples were rapidly produced, and immunohistochemical analyses were performed by the same procedure as in Example 1 (2) using their sections. Refer to Table 3 for the type of primary antibody, the tissue fixation conditions, and the concentration used. Further, melanin was visualized by Fontana-Masson staining, and the epidermal stratum corneum thickness and the melanin deposition area were calculated using an image analysis software (Image J).

Assay [5] deals with keratinocytes (neonatal foreskin). Put plainly: Autophagy-activating action: LC3-II protein in keratinocytes by Western blotting. The class given is cell-based, human. The conditions noted are these: 48 hours culture, same toosendanin concentration in both media, control solvent (ethanol). (In general: In western blotting, separated proteins are transferred to a membrane and probed.)

With `CCC(=O)N1CCN(c2ccc(-n3c(=O)ccc4cnc5ccc(-c6cnc7ccccc7c6)cc5c43)cc2C(F)(F)F)CC1` [Torin 1], in assay [1], the “amount of melanin (melanin deposition area)” value is listed as “statistically significantly decreased” and the “epidermal stratum corneum thickness” value is reported as “statistically significantly decreased”. Moreover, in assay [2] (depending on the dose), the “gene expression of Involucrin (IVL)” value is reported as “statistically significantly increased” and the “gene expression of TGM1” value was “statistically significantly increased”. Moreover, in assay [2], the “gene expression of SKP2” value was “statistically significantly reducing”. In addition, the “phosphorylation of mTOR (p-mTOR to mTOR)” value in assay [3] is on record as “inhibition of phosphorylation of mTOR was observed”. In addition, in assay [4], the “localization of ATG5-ATG12 in the epidermis” value is given as “the localization was normalized” and the “localization of ATG16L1 in the epidermis” value is reported as “the localization was normalized”. Besides, in assay [4] (vs untreated skin), the “distribution of Filaggrin (FLG) in the epidermis” value is “restored to be localized by the epidermal granular layer”, the “distribution of Loricrin (LOR) in the epidermis” value is “restored to be localized by the epidermal granular layer”, the “distribution of Transglutaminase 1 (TGM1) in the epidermis” value is recorded as “restored to be localized by the epidermal granular layer” and the “proliferating cells (number of Ki67 positive cells)” value is reported as “a decrease in proliferating cells was confirmed”. Also, in assay [4] (paired t-test p<0.05), the LC3 protein entry is on record as “increased” and the p62 protein aggregation entry is on record as “decreased”.

Consider `CC(=O)O[C@@H]1C[C@H](O)[C@@]23CO[C@@H](O)[C@]1(C)[C@@H]2C[C@@H](O)[C@]1(C)[C@@H]3C(=O)[C@H](OC(C)=O)[C@@]2(C)[C@H](c3ccoc3)C[C@H]3O[C@]321` [toosendanin], for which the “LC3-II protein in the cells” value in assay [5] is reported as “LC3-II protein-increasing actions”.
